How the values were obtained:
[1] = tested on: Alternaria solani (A. solani); assay: In vitro fungicidal activity, mycelial (hyphae) growth inhibition on PDA; type: cell-based
[2] = Solubility of saturated solutions by HPLC at 25 °C; type: physicochemical
Description: The filtrate was then passed through a 0.22 μm nylon membrane filter and subjected to HPLC analysis. Based on Wang’s report about the chromatographic parameters, modifications to the mobile phase ratio were made. The replicability of the results was ensured by performing each measurement in triplicate.

[3] = tested on: B. cinerea on cherry tomatoes; assay: In vivo antifungal bioassay on cherry tomatoes; design: species or system Botrytis cinerea; conditions: 20 mg/L
[4] = Critical micelle concentration by electrical conductivity; conditions: 25 °C
Procedure: The critical micelle concentrations (CMCs) of the TISs were measured using electrical conductivity at 25 °C, as shown in Figure S16.
The critical micelle concentrations (CMCs) of all the TISs were determined using an electrical conductivity meter (Leica Desktop Conductivity Meter DDSJ-308F, Shanghai Oustor Industrial Co., Ltd. Shanghai, China).

[5] = tested on: Fusarium graminearum (F. graminearum); assay: microbe, parasite or virus in culture; type: cell-based
[6] = tested on: Phomopsis capsici (P. capsica); assay: In vitro fungicidal activity, mycelial (hyphae) growth inhibition on PDA; type: cell-based; conditions: mean ± SD of three replicates
[7] = Solubility classification in representative solvents (Vogel protocol); type: physicochemical; conditions: 25 °C, test amount 0.1 g
Procedure: This investigation details how to determine the solubility of terbinafine and its salts, guided by the experimental protocol in Vogel’s Textbook of Practical Organic Chemistry. Based on the Snyder polarity index values of the representative solvents, each solvent was tested for its ability to dissolve the target analytes. The solubility data was classified into three categories based on the observed extent of dissolution. […] The experimental procedures were performed at 25 °C and under ambient pressure.

[8] = tested on: Valsa malicola (V. mali); assay: In vitro fungicidal activity, mycelial (hyphae) growth inhibition on PDA; type: cell-based
[9] = Surface tension of saturated aqueous solutions, Du Noüy ring method; conditions: 25 °C
Procedure: This method involved adjusting the stage positioning of the solvent container such that a platinum ring could be immersed below the liquid interface or pulled through the meniscus. […] The maximum force was recorded as the surface tension of the solvent. To ensure accuracy, the platinum ring was thoroughly cleaned between each measurement through rinsing with double-distilled water and wiping it dry. The surface tension determination was performed in quadruplicate.

[10] = tested on: Botrytis cinerea (B. cinerea); assay: In vitro fungicidal activity, mycelial (hyphae) growth inhibition on PDA; type: cell-based
[11] = tested on: Pyricularia oryzae (P. oryzae); assay: microbe, parasite or virus in culture; type: cell-based
[12] = tested on: Pythium aphanidermatum (P. aphanidermatum); assay: In vitro fungicidal activity, mycelial (hyphae) growth inhibition on PDA; type: cell-based; conditions: mean ± SD of three replicates
[13] = tested on: Rhizoctonia solani (R. solani); assay: microbe, parasite or virus in culture; type: cell-based
[14] = 50 mg/L, mean ± SD of three replicates

Q: Which “Inhibition Rate at 50 mg/L (%) A. s” value [1, 14] does the source give for `CN(C/C=C/C#CC(C)(C)C)Cc1cccc2ccccc12.O=C(O)c1ccco1` [TIS 5, (E)-N,6,6-trimethyl-N-(naphthalen-1-ylmethyl)hept-2-en-4-yn-1-aminium furan-2-carboxylate] here?
A: 98.67 ± 0.61%

Q: And the “EC50 (mg/L)” value ([1]; A. solani)?
A: 0.08 mg/L

Q: And the “improvement of antifungal activity compared to terbinafine” value ([1]; A. solani, from EC50)?
A: 20%

Q: And the EC50 ([1]; A. solani, read-out: EC50 (μmol/L))?
A: 0.2 µmol/L

Q: And the “Solubility, n-Hexane” value ([2]; Table S1)?
A: 1.02 µM

Q: And the water solubility ([2]; water)?
A: 5880 µM

Q: What about the “Diameter of infection (cm) 4 days” value ([3]; 4 days after treatment) of the same molecule?
A: 0.61 cm

Q: And the “Diameter of infection (cm) 7 days” value ([3]; 7 days after treatment)?
A: 0.74 cm

Q: And the “critical micelle concentration (CMC)” value [4]?
A: 0.66 mmol/L

Q: And the “Inhibition Rate at 50 mg/L (%) F. g” value [5, 14]?
A: 100 ± 0%

Q: And the “EC50 (mg/L)” value ([5]; F. graminearum)?
A: 0.11 mg/L

Q: And the EC50 ([5]; F. graminearum, read-out: EC50)?
A: 270 nM

Q: What about the “Inhibition Rate at 50 mg/L (%) P. c” value [6] of the same molecule?
A: 55.88 ± 1.89%

Q: What about the “Solubility in n-Hexane” value ([7]; Snyder polarity index 0.0) of the same molecule?
A: − (“−” means insoluble in a 3 mL solvent, poor solubility)

Q: And the “Solubility in Toluene” value ([7]; Snyder polarity index 2.3)?
A: + (“+” means soluble in a 1 mL solvent, good solubility)

Q: And the “Solubility in Chloroform” value ([7]; Snyder polarity index 4.1)?
A: + (“+” means soluble in a 1 mL solvent, good solubility)

Q: And the “Solubility in Ethyl acetate” value ([7]; Snyder polarity index 4.3)?
A: + (“+” means soluble in a 1 mL solvent, good solubility)

Q: And the “Solubility in Isopropanol” value ([7]; Snyder polarity index 4.3)?
A: + (“+” means soluble in a 1 mL solvent, good solubility)

Q: What about the “Solubility in Acetone” value ([7]; Snyder polarity index 5.1) of the same molecule?
A: + (“+” means soluble in a 1 mL solvent, good solubility)

Q: What about the “Solubility in Acetonitrile” value ([7]; Snyder polarity index 6.2) of the same molecule?
A: + (“+” means soluble in a 1 mL solvent, good solubility)

Q: And the “Solubility in DMSO” value ([7]; Snyder polarity index 6.5)?
A: + (“+” means soluble in a 1 mL solvent, good solubility)

Q: What about the “Solubility in Methanol” value ([7]; Snyder polarity index 6.6) of the same molecule?
A: + (“+” means soluble in a 1 mL solvent, good solubility)

Q: What about the “Solubility in Water” value ([7]; Snyder polarity index 9.0) of the same molecule?
A: − (“−” means insoluble in a 3 mL solvent, poor solubility)

Q: And the “Inhibition Rate at 50 mg/L (%) V. m” value [8, 14]?
A: 100 ± 0%

Q: And the “EC50 (mg/L)” value ([8]; V. mali)?
A: 1.49 mg/L

Q: What about the “improvement of antifungal activity compared to terbinafine” value ([8]; V. mali, from EC50) of the same molecule?
A: 14%

Q: What about the EC50 ([8]; V. mali, read-out: EC50 (μmol/L)) of the same molecule?
A: 3.69 µmol/L

Q: What about the “surface tension of the saturated aqueous solution” value [9] of the same molecule?
A: 51.26 mN·m^−1

Q: And the “Inhibition Rate at 50 mg/L (%) B. c” value [10, 14]?
A: 100 ± 0%

Q: And the “EC50 (mg/L)” value ([10]; B. cinerea)?
A: 0.13 mg/L

Q: And the EC50 ([10]; B. cinerea, read-out: EC50 (μmol/L))?
A: 0.33 µmol/L

Q: And the “Inhibition Rate at 50 mg/L (%) P. o” value [11, 14]?
A: 96.68 ± 0.42%

Q: What about the “EC50 (mg/L)” value ([11]; P. oryzae) of the same molecule?
A: 0.49 mg/L

Q: What about the EC50 ([11]; P. oryzae, read-out: EC50) of the same molecule?
A: 1220 nM

Q: What about the “Inhibition Rate at 50 mg/L (%) P. a” value [12] of the same molecule?
A: 71.96 ± 2.68%

Q: And the “EC50 (mg/L)” value [13]?
A: 2.43 mg/L

Q: What about the “Inhibition Rate at 50 mg/L (%) R. s” value ([13]; 50 mg/L) of the same molecule?
A: 82.02 ± 0.91%

Q: And the EC50 ([13]; read-out: EC50)?
A: 6020 nM

— PMC10303384, “The Effect of Terbinafine and Its Ionic Salts on Certain Fungal Plant Pathogens” (Molecules, 2023)
